These compounds were tested on Streptococcus pyogenes (ATCC# 97-03 14289) (assay: Anti-microbial screen (percent inhibition of growth, OD 570 nm)). Conditions: Spy4H: Streptococcus pyogenes, read at 4 hours, OD 570 nm; Conc 0.1776 mg ml.
Format: cell-based
Procedure: Streptococcus pyogenes (ATCC# 97-03 14289) was grown in Todd Hewitt Broth (THB) (Difco Laboratories #0492-17-6) overnight until reaching an optical density of (OD=0.636@570 nm) by reading 0.1 ml in a 96 well microtiter plate in a Molecular Devices Thermomax. This preparation was kept frozen as stocks in 30% v/v glycerol in 1.5 ml aliquots at […] until use. Prior to experiments, 6 ml aliquots were thawed and diluted into 50 ml 2×THB. 60 ul of this dilution was added to 92 wells of microtiter plate. To three wells THB (200 ul) was added to serve as a blank and a sterility control. Test compounds in DMSO and appropriate concentrations of DMSO were added to Growth/Solvent Controls at 0 time. Plates were read at 0 time at 570 nm in the Molecular Devices plate reader to obtain compounds correction factors for insoluble or colored compounds. Plates were read again at 4 hours.
Percent inhibition is calculated with the following formula:
Color correct=O.D. 0 hr - Blank 0 hr)-(Solvent Control Ohr - Blank 0 hr) [formula]

Structure (SMILES) | inhibition of growth at 177.6 µg/mL [%]
COc1cccc(S/C(=N\Cc2ccc(F)cc2)N(CCc2ccc(Cl)cc2)Cc2ccc(O)cc2)c1 [Cmpd 364] | 66.9
COc1cccc(S/C(=N\c2ccc(C(F)(F)F)cc2)N(CCc2ccc(Cl)cc2)Cc2ccc(O)cc2)c1 [Cmpd 367] | 70.5
COc1cccc(S/C(=N\c2cc(Cl)cc(Cl)c2)N(CCc2ccc(Cl)cc2)Cc2ccc(O)cc2)c1 [Cmpd 373] | 75
Cc1ccc(CN(Cc2cccc(O)c2)/C(=N/c2ccc(C(F)(F)F)cc2)Sc2ccc(C)cc2)cc1 [Cmpd 407] | 71.7
Cc1ccc(CN(Cc2cccc(O)c2)/C(=N/c2cc(Cl)cc(Cl)c2)Sc2ccc(C)cc2)cc1 [Cmpd 413] | 57.6
Cc1ccc(CN(Cc2cccc(O)c2)/C(=N/c2ccccc2[N+](=O)[O-])Sc2ccc(C)cc2)cc1 [Cmpd 426] | 67.4
COc1ccc(C)cc1/N=C(\Sc1ccc(C)cc1)N(Cc1ccc(C)cc1)Cc1cccc(O)c1 [Cmpd 429] | 79.5
Cc1ccc(CN(Cc2cccc(O)c2)/C(=N/c2ccc(C(F)(F)F)cc2)Sc2cccc(C)c2)cc1 [Cmpd 447] | 99.5
Cc1ccc(CN(Cc2cccc(O)c2)/C(=N/c2cc(Cl)cc(Cl)c2)Sc2cccc(C)c2)cc1 [Cmpd 453] | 60.5
Cc1ccc(CN(Cc2cccc(O)c2)/C(=N/c2ccc(Cl)c([N+](=O)[O-])c2)Sc2cccc(C)c2)cc1 [Cmpd 463] | 86.7
Cc1ccc(CN(Cc2cccc(O)c2)/C(=N/c2ccccc2[N+](=O)[O-])Sc2cccc(C)c2)cc1 [Cmpd 466] | 69.7
Cc1ccc(CN(Cc2cccc(O)c2)/C(=N\c2ccc(Cl)c(C(F)(F)F)c2)Sc2cccc(C)c2)cc1 [Cmpd 473] | 57.6
Cc1ccc(S/C(=N/c2ccc(C(F)(F)F)cc2)N(Cc2ccccc2)Cc2ccc(O)cc2)c(C)c1 [Cmpd 487] | 82.8
Cc1cccc(S/C(=N/Cc2ccc(F)cc2)N(Cc2cccc(O)c2)CC(C)C)c1 [Cmpd 524] | 89.5
Cc1cccc(S/C(=N/c2ccc(C(F)(F)F)cc2)N(Cc2cccc(O)c2)CC(C)C)c1 [Cmpd 527] | 96.4
COc1ccc(C)cc1/N=C(/Sc1cccc(C)c1)N(Cc1cccc(O)c1)CC(C)C [Cmpd 549] | 62.9
COCCN(Cc1ccc(O)cc1)/C(=N\c1cc(Cl)cc(Cl)c1)Sc1ccc(C)cc1 [Cmpd 653] | 80.2

Structure (SMILES) | inhibition of growth at 177.6 µg/mL [%]
COCCN(Cc1ccc(O)cc1)/C(=N\c1ccc(Cl)c(C(F)(F)F)c1)Sc1ccc(C)cc1 [Cmpd 673] | 72.8
COCCN(Cc1ccc(O)cc1)/C(=N\c1ccc(F)c(F)c1)Sc1ccc(C)cc1 [Cmpd 676] | 87.5
Cc1cccc(S/C(=N\Cc2ccc(F)cc2)N(CCc2ccc(Cl)cc2)Cc2cccc(O)c2)c1 [Cmpd 684] | 94.1
Cc1cccc(S/C(=N\c2cccc(C(F)(F)F)c2)N(CCc2ccc(Cl)cc2)Cc2cccc(O)c2)c1 [Cmpd 686] | 68.4
Cc1cccc(S/C(=N\c2ccc(F)c(Cl)c2)N(CCc2ccc(Cl)cc2)Cc2cccc(O)c2)c1 [Cmpd 694] | 62.5
Cc1cccc(S/C(=N\c2ccccc2[N+](=O)[O-])N(CCc2ccc(Cl)cc2)Cc2cccc(O)c2)c1 [Cmpd 706] | 63.6
CCCCN(Cc1cccc(O)c1)/C(=N\Cc1ccc(F)cc1)Sc1ccccc1 [Cmpd 724] | 83.3
CCCCN(Cc1cccc(O)c1)/C(=N\c1cc(Cl)cc(Cl)c1)Sc1ccccc1 [Cmpd 733] | 63.5
CCCCN(Cc1cccc(O)c1)/C(=N\c1ccc(F)c(Cl)c1)Sc1ccccc1 [Cmpd 734] | 89.6
CCCCN(Cc1cccc(O)c1)/C(=N\c1ccc(Cl)c([N+](=O)[O-])c1)Sc1ccccc1 [Cmpd 743] | 64.2
CCCCN(Cc1cccc(O)c1)/C(=N\c1ccc(Cl)c(C(F)(F)F)c1)Sc1ccccc1 [Cmpd 753] | 66
CCCCN(Cc1cccc(O)c1)/C(=N\c1ccc(F)c(F)c1)Sc1ccccc1 [Cmpd 756] | 71.9
COc1cccc(CN(Cc2ccc(O)cc2)/C(=N/c2cc(Cl)cc(Cl)c2)Sc2cccc(OC)c2)c1 [Cmpd 773] | 68.4
COc1cccc(CCN(Cc2cccc(O)c2)/C(=N/c2ccc(F)c(Cl)c2)Sc2ccccc2)c1 [Cmpd 814] | 57.8
Oc1cccc(CN(Cc2ccc(Cl)c(Cl)c2)/C(=N/c2ccc(C(F)(F)F)cc2)Sc2ccccc2)c1 [Cmpd 847] | 90.3
Oc1cccc(CN(Cc2ccc(Cl)c(Cl)c2)/C(=N/c2cc(Cl)cc(Cl)c2)Sc2ccccc2)c1 [Cmpd 853] | 60.2
O=[N+]([O-])c1ccccc1/N=C(\Sc1ccccc1)N(Cc1cccc(O)c1)Cc1ccc(Cl)c(Cl)c1 [Cmpd 866] | 60.8

Same assay, conditions: Streptococcus pyogenes; Assay Spy4H; Conc 0.1776 mg ml; plates read at 570 nm at 0 time and at 4 hours

Structure (SMILES) | inhibition of growth at 177.6 µg/mL [%]
COc1cccc(S/C(=N\Cc2cccc(C)c2)N(CCc2ccc(Cl)cc2)Cc2ccc(O)cc2)c1 [Cmpd 362] | 50.9
COc1cccc(S/C(=N\c2cccc(F)c2)N(CCc2ccc(Cl)cc2)Cc2ccc(O)cc2)c1 [Cmpd 363] | 50.3
COc1cccc(S/C(=N\c2cccc(C(F)(F)F)c2)N(CCc2ccc(Cl)cc2)Cc2ccc(O)cc2)c1 [Cmpd 366] | 49.1
COc1cccc(S/C(=N\c2ccc(Cl)c([N+](=O)[O-])c2)N(CCc2ccc(Cl)cc2)Cc2ccc(O)cc2)c1 [Cmpd 383] | 56.7
COc1cccc(S/C(=N/c2ccc(Cl)c(C(F)(F)F)c2)N(CCc2ccc(Cl)cc2)Cc2ccc(O)cc2)c1 [Cmpd 393] | 54.5
COc1cccc(S/C(=N\c2ccc(F)c(F)c2)N(CCc2ccc(Cl)cc2)Cc2ccc(O)cc2)c1 [Cmpd 396] | 54.2
Cc1ccc(CN(Cc2cccc(O)c2)/C(=N/c2ccc(F)c(Cl)c2)Sc2ccc(C)cc2)cc1 [Cmpd 414] | 49.1
Cc1ccc(CN(Cc2cccc(O)c2)/C(=N/c2ccc(Cl)c([N+](=O)[O-])c2)Sc2ccc(C)cc2)cc1 [Cmpd 423] | 57.3
Cc1ccc(CN(Cc2cccc(O)c2)/C(=N\c2ccc(Cl)c(C(F)(F)F)c2)Sc2ccc(C)cc2)cc1 [Cmpd 433] | 51.7
Cc1ccc(CN(Cc2cccc(O)c2)/C(=N/Cc2ccc(F)cc2)Sc2cccc(C)c2)cc1 [Cmpd 444] | 56.6
COc1ccc(C)cc1/N=C(\Sc1cccc(C)c1)N(Cc1ccc(C)cc1)Cc1cccc(O)c1 [Cmpd 469] | 53
Cc1ccc(S/C(=N\c2cc(Cl)cc(Cl)c2)N(Cc2ccccc2)Cc2ccc(O)cc2)c(C)c1 [Cmpd 493] | 55.6
Cc1ccc(S/C(=N/c2ccc(Cl)c([N+](=O)[O-])c2)N(Cc2ccccc2)Cc2ccc(O)cc2)c(C)c1 [Cmpd 503] | 57.3
Cc1ccc(S/C(=N/c2ccc(Cl)c(C(F)(F)F)c2)N(Cc2ccccc2)Cc2ccc(O)cc2)c(C)c1 [Cmpd 513] | 52.9
Cc1cccc(S/C(=N/Cc2ccccc2)N(Cc2cccc(O)c2)CC(C)C)c1 [Cmpd 521] | 50.6
Cc1cccc(C/N=C(/Sc2cccc(C)c2)N(Cc2cccc(O)c2)CC(C)C)c1 [Cmpd 522] | 54.6
Cc1cccc(S/C(=N/c2cccc(C(F)(F)F)c2)N(Cc2cccc(O)c2)CC(C)C)c1 [Cmpd 526] | 50
Cc1cccc(S/C(=N/c2cc(Cl)cc(Cl)c2)N(Cc2cccc(O)c2)CC(C)C)c1 [Cmpd 533] | 52
CCc1cccc(/N=C(/Sc2ccc(C)cc2)N(CCOC)Cc2ccc(O)cc2)c1 [Cmpd 658] | 53
COCCN(Cc1ccc(O)cc1)/C(=N\c1ccc(Cl)c([N+](=O)[O-])c1)Sc1ccc(C)cc1 [Cmpd 663] | 54.8
COc1ccc(C)cc1/N=C(\Sc1cccc(C)c1)N(CCc1ccc(Cl)cc1)Cc1cccc(O)c1 [Cmpd 709] | 49.7
CCCCN(Cc1cccc(O)c1)/C(=N\c1ccc(C(F)(F)F)cc1)Sc1ccccc1 [Cmpd 727] | 56.3
COc1cccc(CN(Cc2ccc(O)cc2)/C(=N/c2ccc(C(F)(F)F)cc2)Sc2cccc(OC)c2)c1 [Cmpd 767] | 52.4
COc1cccc(CN(Cc2ccc(O)cc2)/C(=N/c2ccc(Cl)c([N+](=O)[O-])c2)Sc2cccc(OC)c2)c1 [Cmpd 783] | 54.5
COc1cccc(CN(Cc2ccc(O)cc2)/C(=N\c2ccc(Cl)c(C(F)(F)F)c2)Sc2cccc(OC)c2)c1 [Cmpd 793] | 52.4
Cc1cccc(C/N=C(\Sc2ccccc2)N(Cc2cccc(O)c2)Cc2ccc(Cl)c(Cl)c2)c1 [Cmpd 842] | 49.3
Oc1cccc(CN(Cc2ccc(Cl)c(Cl)c2)/C(=N/c2cccc(F)c2)Sc2ccccc2)c1 [Cmpd 843] | 53.4
Oc1cccc(CN(Cc2ccc(Cl)c(Cl)c2)/C(=N/c2cccc(C(F)(F)F)c2)Sc2ccccc2)c1 [Cmpd 846] | 49.3
Oc1cccc(CN(Cc2ccc(Cl)c(Cl)c2)/C(=N/c2cccc(Cl)c2)Sc2ccccc2)c1 [Cmpd 852] | 50
Oc1cccc(CN(Cc2ccc(Cl)c(Cl)c2)/C(=N/c2ccc(F)c(Cl)c2)Sc2ccccc2)c1 [Cmpd 854] | 55.8

Source: patent US20040010036A1, “N,N, -Substituted s-Aryl-Isothioureas, N,N,N, -Substituted s-Aryl-Isothioureas and combinatorial libraries thereof” (priority 2002, published 2004)
